{
  "source": "patent US11524966B1",
  "about": "(Valo Early Discovery, Inc., priority 2017, dated 2022)",
  "target": "T1, USP28 (His-tagged USP28-FL-mammalian) (Homo sapiens, UniProt Q96RU2)",
  "T1 construct": "Expression of USP28 (1-1077)-TEV-6*His (pTT5 vector); made in house; host or cells: Expi293f cells (pTT5 vector)",
  "T1 sequence (Q96RU2 1-1077)": "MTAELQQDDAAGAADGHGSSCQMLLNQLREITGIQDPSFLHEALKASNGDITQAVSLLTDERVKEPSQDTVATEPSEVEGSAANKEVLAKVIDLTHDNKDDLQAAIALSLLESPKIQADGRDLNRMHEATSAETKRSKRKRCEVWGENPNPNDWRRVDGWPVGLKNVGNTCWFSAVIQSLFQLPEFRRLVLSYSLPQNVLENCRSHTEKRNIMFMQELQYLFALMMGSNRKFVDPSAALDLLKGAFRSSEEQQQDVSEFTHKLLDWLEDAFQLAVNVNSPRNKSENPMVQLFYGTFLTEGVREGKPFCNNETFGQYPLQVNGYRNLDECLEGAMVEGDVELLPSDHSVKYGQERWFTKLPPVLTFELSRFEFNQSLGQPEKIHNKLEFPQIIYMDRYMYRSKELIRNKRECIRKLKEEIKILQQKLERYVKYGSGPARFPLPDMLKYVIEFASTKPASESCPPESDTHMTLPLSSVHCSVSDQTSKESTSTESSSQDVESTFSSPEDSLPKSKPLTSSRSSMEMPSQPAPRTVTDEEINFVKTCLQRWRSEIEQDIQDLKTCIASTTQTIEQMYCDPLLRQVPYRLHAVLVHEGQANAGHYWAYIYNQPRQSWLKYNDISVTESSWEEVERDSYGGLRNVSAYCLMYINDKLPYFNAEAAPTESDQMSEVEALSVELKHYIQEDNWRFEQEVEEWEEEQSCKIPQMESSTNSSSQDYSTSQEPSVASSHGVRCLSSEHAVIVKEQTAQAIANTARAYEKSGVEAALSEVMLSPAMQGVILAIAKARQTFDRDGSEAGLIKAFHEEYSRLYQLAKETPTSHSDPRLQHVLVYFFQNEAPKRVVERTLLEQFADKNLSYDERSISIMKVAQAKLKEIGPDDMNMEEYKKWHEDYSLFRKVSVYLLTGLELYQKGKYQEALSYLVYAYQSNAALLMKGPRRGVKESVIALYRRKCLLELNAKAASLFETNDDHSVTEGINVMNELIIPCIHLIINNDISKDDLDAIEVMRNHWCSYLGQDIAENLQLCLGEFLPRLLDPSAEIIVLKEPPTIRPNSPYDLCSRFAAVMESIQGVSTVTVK",
  "assay": "Ubiquitin-Rhodamine 110 Assay for USP28 Activity, Example A-1(a)",
  "assay_type": "biochemical",
  "conditions": "Ubiquitin-Rhodamine 110 assay, Example A-1(a); read-out: USP28 A-1(a) IC50 range",
  "summary_of_the_method": "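Full-length His-tagged human USP28 (1-1077, Expi293f-expressed), […], with 25 nM Ub-Rh110 (<<Km) in pH 8.0 Tris buffer with BME, BGG, Triton X-100. 10-point dilutions (25 μM-1.3 nM), 45 min at room temperature, citric acid stop, fluorescence 485/535 nm; IC50 by 4-parameter fit.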",
  "data": [
    {"compound": "CO[C@H]1CN(c2ccc3c(c2)OC[C@H](NC(=O)c2sc4nc(C)cnc4c2N)C3)C[C@@H]1N", "note": "[Example 117, 7-amino-N-[(3R)-7-[(3S,4S)-3-amino-4-methoxypyrrolidin-1-yl]-3,4-dihydro-2H-1-benzopyran-3-yl]-3-methylthieno[2,3-b]pyrazine-6-carboxamide]", "values": [
      {"measurement": "IC50", "value": "1 to 50", "unit": "nM"}
    ]},
    {"compound": "CO[C@H]1CN(c2ccc3c(c2)OC[C@H](NC(=O)c2sc4nc(C)sc4c2N)C3)C[C@@H]1N", "note": "[Example 118, 6-amino-N-[(3R)-7-[(3S,4S)-3-amino-4-methoxypyrrolidin-1-yl]-3,4-dihydro-2H-1-benzopyran-3-yl]-2-methylthieno[2,3-d][1,3]thiazole-5-carboxamide]", "values": [
      {"measurement": "IC50", "value": "50 to 200", "unit": "nM"}
    ]},
    {"compound": "CO[C@H]1CCN(c2ccc3c(c2)OC[C@H](NC(=O)c2sc4nc(C)ccc4c2N)C3)C[C@@H]1N", "note": "[Example 119, 3-amino-N-[(3R)-7-[(3S,4S)-3-amino-4-methoxypiperidin-1-yl}-3,4-dihydro-2H-1-benzopyran-3-yl]-6-methylthieno[2,3-b]pyridine-2-carboxamide]", "values": [
      {"measurement": "IC50", "value": "50 to 200", "unit": "nM"}
    ]},
    {"compound": "CO[C@@H]1CCN(c2ccc3c(c2)OC[C@H](NC(=O)c2sc4nc(C)ccc4c2N)C3)C[C@H]1N", "note": "[Example 120, 3-amino-N-[(3R)-7-[(3R,4R)-3-amino-4-methoxypiperidin-1-yl]-3,4-dihydro-2H-1-benzopyran-3-yl]-6-methylthieno[2,3-b]pyridine-2-carboxamide]", "values": [
      {"measurement": "IC50", "value": "1 to 50", "unit": "nM"}
    ]},
    {"compound": "CO[C@@H]1CN(c2ccc3c(c2)OC[C@H](NC(=O)c2sc4nc(C)ccc4c2N)C3)C[C@@H]1N", "note": "[Example 121, 3-amino-N-[(3R)-7-[(3S,4R)-3-amino-4-methoxypyrrolidin-1-yl]-3,4-dihydro-2H-1-benzopyran-3-yl]-6-methylthieno[2,3-b]pyridine-2-carboxamide]", "values": [
      {"measurement": "IC50", "value": "1 to 50", "unit": "nM"}
    ]},
    {"compound": "CO[C@H]1CN(c2ccc3c(c2)OC[C@H](NC(=O)c2sc4nc(C)ccc4c2N)C3)C[C@H]1N", "note": "[Example 122, 3-amino-N-[(3R)-7-[(3R,4S)-3-amino-4-methoxypyrrolidin-1-yl]-3,4-dihydro-2H-1-benzopyran-3-yl]-6-methylthieno[2,3-b]pyridine-2-carboxamide]", "values": [
      {"measurement": "IC50", "value": "1 to 50", "unit": "nM"}
    ]},
    {"compound": "Cc1ccc2c(N)c(C(=O)N[C@H]3COc4cc([C@H]5C[C@@H](N)C5)ccc4C3)sc2n1", "note": "[Example 123, 3-amino-6-methyl-N-[(3R)-7-[(1s,3S)-3-aminocyclobutyl]-3,4-dihydro-2H-1-benzopyran-3-yl]thieno[2,3-b]pyridine-2-carboxamide]", "values": [
      {"measurement": "IC50", "value": "1 to 50", "unit": "nM"}
    ]},
    {"compound": "Cc1ccc2c(N)c(C(=O)N[C@H]3COc4cc([C@H]5C[C@H](N)C5)ccc4C3)sc2n1", "note": "[Example 124, 3-amino-6-methyl-N-[(3R)-7-[(1r,3r)-3-aminocyclobutyl]-3,4-dihydro-2H-1-benzopyran-3-yl]thieno[2,3-b]pyridine-2-carboxamide]", "values": [
      {"measurement": "IC50", "value": "1 to 50", "unit": "nM"}
    ]},
    {"compound": "Cc1ccc2c(N)c(C(=O)N[C@H]3COc4cc(C5CC6COCC(C5)N6)ccc4C3)sc2n1", "note": "(stereo partly drawn) [Example 125, 3-amino-6-methyl-N-[(3R)-7-{3-oxa-9-azabicyclo[3.3.1]nonan-7-yl}-3,4-dihydro-2H-1-benzopyran-3-yl]thieno[2,3-b]pyridine-2-carboxamide]", "values": [
      {"measurement": "IC50", "value": "1 to 50", "unit": "nM"}
    ]},
    {"compound": "Cc1ccc2c(N)c(C(=O)N[C@H]3COc4cc(N5CC6CCC(C5)N6)c(C#N)c(F)c4C3)sc2n1", "note": "[Example 126, 3-amino-N-[(3R)-6-cyano-7-{3,8-diazabicyclo[3.2.1]octan-3-yl}-5-fluoro-3,4-dihydro-2H-1-benzopyran-3-yl]-6-methylthieno[2,3-b]pyridine-2-carboxamide]", "values": [
      {"measurement": "IC50", "value": "1 to 50", "unit": "nM"}
    ]},
    {"compound": "Cc1ccc2c(N)c(C(=O)N[C@H]3COc4cc(N5CC6CNCC(C5)O6)c(C#N)c(F)c4C3)sc2n1", "note": "[Example 127, 3-amino-N-[(3R)-6-cyano-5-fluoro-7-{9-oxa-3,7-diazabicyclo[3.3.1]nonan-3-yl}-3,4-dihydro-2H-1-benzopyran-3-yl]-6-methylthieno[2,3-b]pyridine-2-carboxamide]", "values": [
      {"measurement": "IC50", "value": "1 to 50", "unit": "nM"}
    ]},
    {"compound": "CO[C@H]1CN(c2ccc3c(c2)OC[C@H](NC(=O)c2sc4nc(C)ccc4c2N)C3)CC[C@@H]1N", "note": "[Example 128, 3-amino-N-[(3R)-7-[(3S,4S)-4-amino-3-methoxypiperidin-1-yl]-3,4-dihydro-2H-1-benzopyran-3-yl]-6-methylthieno[2,3-b]pyridine-2-carboxamide]", "values": [
      {"measurement": "IC50", "value": "1 to 50", "unit": "nM"}
    ]},
    {"compound": "CO[C@@H]1CN(c2ccc3c(c2)OC[C@H](NC(=O)c2sc4nc(C)ccc4c2N)C3)CC[C@H]1N", "note": "[Example 129, 3-amino-N-[(3R)-7-[(3R,4R)-4-amino-3-methoxypiperidin-1-yl]-3,4-dihydro-2H-1-benzopyran-3-yl]-6-methylthieno[2,3-b]pyridine-2-carboxamide]", "values": [
      {"measurement": "IC50", "value": "1 to 50", "unit": "nM"}
    ]},
    {"compound": "CO[C@H]1CN(c2ccc3c(c2)CC[C@H](NC(=O)c2sc4nc(C)cnc4c2N)C3)C[C@@H]1N", "note": "[Example 130, 7-amino-N-[(2S)-6-[(3S,4S)-3-amino-4-methoxypyrrolidin-1-yl]-1,2,3,4-tetrahydronaphthalen-2-yl]-3-methylthieno[2,3-b]pyrazine-6-carboxamide]", "values": [
      {"measurement": "IC50", "value": "50 to 200", "unit": "nM"}
    ]},
    {"compound": "CCn1ccc2cc(C(=O)N[C@H]3CCc4cc(N5C[C@H](OC)[C@@H](N)C5)ccc4C3)nnc21", "note": "[Example 131, N-[(2S)-6-[(3S,4S)-3-amino-4-methoxypyrrolidin-1-yl]-1,2,3,4-tetrahydronaphthalen-2-yl]-7-ethyl-7H-pyrrolo[2,3-c]pyridazine-3-carboxamide]", "values": [
      {"measurement": "IC50", "value": "> 2000", "unit": "nM"}
    ]},
    {"compound": "CCn1ccc2cc(C(=O)N[C@H]3CCc4cc(N5C[C@H](OC)[C@@H](N)C5)ccc4C3)cnc21", "note": "[Example 132, N-[(2S)-6-[(3S,4S)-3-amino-4-methoxypyrrolidin-1-yl]-1,2,3,4-tetrahydronaphthalen-2-yl]-1-ethyl-1H-pyrrolo[2,3-b]pyridine-5-carboxamide]", "values": [
      {"measurement": "IC50", "value": "200 to 2000", "unit": "nM"}
    ]},
    {"compound": "CO[C@H]1CN(c2ccc3c(c2)CC[C@H](NC(=O)c2sc4nc(C)sc4c2N)C3)C[C@@H]1N", "note": "[Example 133, 6-amino-N-[(2S)-6-[(3S,4S)-3-amino-4-methoxypyrrolidin-1-yl]-1,2,3,4-tetrahydronaphthalen-2-yl]-2-methylthieno[2,3-d][1,3]thiazole-5-carboxamide]", "values": [
      {"measurement": "IC50", "value": "50 to 200", "unit": "nM"}
    ]},
    {"compound": "COc1ccc2c(N)c(C(=O)N[C@H]3CCc4cc(N5C[C@H](OC)[C@@H](N)C5)ccc4C3)sc2n1", "note": "[Example 134, 3-amino-N-[(2S)-6-[(3S,4S)-3-amino-4-methoxypyrrolidin-1-yl]-1,2,3,4-tetrahydronaphthalen-2-yl]-6-methoxythieno[2,3-b]pyridine-2-carboxamide]", "values": [
      {"measurement": "IC50", "value": "200 to 2000", "unit": "nM"}
    ]},
    {"compound": "COc1nc2sc(C(=O)N[C@H]3CCc4cc(N5C[C@H](OC)[C@@H](N)C5)ccc4C3)c(N)c2cc1F", "note": "[Example 135, 3-amino-N-[(2S)-6-[(3S,4S)-3-amino-4-methoxypyrrolidin-1-yl]-1,2,3,4-tetrahydronaphthalen-2-yl]-5-fluoro-6-methoxythieno[2,3-b]pyridine-2-carboxamide]", "values": [
      {"measurement": "IC50", "value": "200 to 2000", "unit": "nM"}
    ]},
    {"compound": "CO[C@H]1CN(c2cc(F)c3c(c2)CC[C@H](NC(=O)c2sc4nc(C)ccc4c2N)C3)C[C@@H]1N", "note": "[Example 136, 3-amino-N-[(2S)-6-[(3S,4S)-3-amino-4-methoxypyrrolidin-1-yl]-8-fluoro-1,2,3,4-tetrahydronaphthalen-2-yl]-6-methylthieno[2,3-b]pyridine-2-carboxamide]", "values": [
      {"measurement": "IC50", "value": "> 2000", "unit": "nM"}
    ]},
    {"compound": "CO[C@H]1CN(c2cc(F)c3c(c2)CC[C@@H](NC(=O)c2sc4nc(C)ccc4c2N)C3)C[C@@H]1N", "note": "[Example 137, 3-amino-N-[(2R)-6-[(3S,4S)-3-amino-4-methoxypyrrolidin-1-yl]-8-fluoro-1,2,3,4-tetrahydronaphthalen-2-yl]-6-methylthieno[2,3-b]pyridine-2-carboxamide]", "values": [
      {"measurement": "IC50", "value": "50 to 200", "unit": "nM"}
    ]},
    {"compound": "CCn1ccc2cc(C(=O)N[C@H]3CCc4cc(N5C[C@H](OC)[C@@H](N)C5)cc(F)c4C3)nnc21", "note": "[Example 138, N-[(2S)-6-[(3S,4S)-3-amino-4-methoxypyrrolidin-1-yl]-8-fluoro-1,2,3,4-tetrahydronaphthalen-2-yl]-7-ethyl-7H-pyrrolo[2,3-c]pyridazine-3-carboxamide]", "values": [
      {"measurement": "IC50", "value": "> 2000", "unit": "nM"}
    ]}
  ]
}
